In ChEMBL document CHEMBL3108687, “Isolation and structures of pipecolidepsins A and B, cytotoxic cyclic depsipeptides from the Madagascan sponge Homophymia lamellosa” (2014):

Legend:
Assay type in all cases: functional
[1] = system: HT-29; experiment: Growth inhibition of human HT-29 cells after 72 hrs by sulforhodamine B assay; details: HT-29, 72 h
[2] = system: A549; experiment: Growth inhibition of human A549 cells after 72 hrs by sulforhodamine B assay; details: A549, 72 h
[3] = system: MDA-MB-231; experiment: Growth inhibition of human MDA-MB-231 cells after 72 hrs by sulforhodamine B assay; details: MDA-MB-231, 72 h

GI50 [1] [µM] | GI50 [2] [µM] | GI50 [3] [µM] | SMILES
0.01 | 0.04 | 0.02 | CCO[C@H](C(N)=O)[C@@H]1NC(=O)[C@H](CCC(N)=O)N(C)C(=O)[C@H](CC(C)C)NC(=O)[C@@H](CCCCN)NC(=O)[C@@H]([C@@H](C)O)NC(=O)[C@H](NC(=O)[C@@H](NC(=O)[C@H](O)[C@H](O)[C@H](CCC(N)=O)NC(=O)[C@H](NC(=O)[C@H](C)[C@H](O)[C@H](C)CC(C)C)[C@H](O)C(=O)O)[C@@H](C)[C@@H](C)C(N)=O)[C@@H]([C@H](C)C(C)C)OC(=O)[C@@H]2CCCCN2C(=O)[C@@H](CC(=O)O)NC1=O
1.12 | 0.6 | 0.7 | CCO[C@H](C(N)=O)[C@@H]1NC(=O)[C@H](CCC(N)=O)N(C)C(=O)[C@H](CC(C)C)NC(=O)[C@@H](CCCCN)NC(=O)[C@@H]([C@@H](C)O)NC(=O)[C@H](NC(=O)[C@@H](NC(=O)[C@H](O)[C@H](O)[C@H](CCC(N)=O)NC(=O)[C@@H](CC(=O)O)NC(=O)[C@H](C)[C@H](O)[C@H](C)CC(C)C)[C@@H](C)[C@@H](C)C(N)=O)[C@@H]([C@H](C)C(C)C)OC(=O)[C@@H]2CCCCN2C(=O)[C@@H](CC(=O)O)NC1=O
